Test results reported in PubChem BioAssay AID248 (DTP/NCI, 2004).
Where “and” joins values, the source holds several entries; their conditions need not be identical. Identical values can stand only once. Inconclusive results and toxic doses are left out.

Tested on: L1210 leukemia ip in BDF1 mice, survival T/C
Assay: NCI In Vivo Anticancer Drug Screen. Data for tumor model L1210 Leukemia (intraperitoneal) in B6D2F1 (BDF1) mice
Conditions: endpoint: mean survival time, higher = longer survival
Method in brief: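 Read-out is survival time, reported as the treated-group measurement over the vehicle-control measurement.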

[1] = dose: 100.0 mg/kg/injection, schedule: Q04DX003 (ip), vehicle: saline
[2] = dose: 200.0 mg/kg/injection, schedule: Q04DX003 (ip), vehicle: saline
[3] = dose: 400.0 mg/kg/injection, schedule: Q04DX003 (ip), vehicle: saline
[4] = dose: 100.0 mg/kg/injection, schedule: Q01DX001 (ip), vehicle: saline
[5] = dose: 100.0 mg/kg/injection, schedule: Q01DX009 (ip), vehicle: saline
[6] = dose: 200.0 mg/kg/injection, schedule: Q01DX009 (ip), vehicle: saline
[7] = dose: 400.0 mg/kg/injection, schedule: Q01DX009 (ip), vehicle: saline
[8] = dose: 100.0 mg/kg/injection, schedule: Q04DX003 (ip), vehicle: Klucel (hydroxypropylcellulose) (HPC)
[9] = dose: 200.0 mg/kg/injection, schedule: Q04DX003 (ip), vehicle: Klucel (hydroxypropylcellulose) (HPC)
[10] = dose: 100.0 mg/kg/injection, schedule: Q04DX003 (ip), vehicle: saline with Tween-80
[11] = dose: 200.0 mg/kg/injection, schedule: Q04DX003 (ip), vehicle: saline with Tween-80
[12] = dose: 400.0 mg/kg/injection, schedule: Q04DX003 (ip), vehicle: saline with Tween-80
[13] = dose: 100.0 mg/kg/injection, schedule: Q01DX009 (ip), vehicle: Klucel (hydroxypropylcellulose) (HPC)
[14] = dose: 200.0 mg/kg/injection, schedule: Q01DX009 (ip), vehicle: Klucel (hydroxypropylcellulose) (HPC)
[15] = dose: 400.0 mg/kg/injection, schedule: Q01DX009 (ip), vehicle: Klucel (hydroxypropylcellulose) (HPC)
[16] = dose: 400.0 mg/kg/injection, schedule: Q04DX003 (ip), vehicle: Klucel (hydroxypropylcellulose) (HPC)
[17] = dose: 200.0 mg/kg/injection, schedule: Q01DX001 (ip), vehicle: saline
[18] = dose: 400.0 mg/kg/injection, schedule: Q01DX001 (ip), vehicle: saline

Oc1ccccc1C=NCC[N-]CCN=Cc1ccccc1O.[Cu+]
T/C (dose: 1.56 mg/kg/injection, schedule: Q01DX009 (ip), vehicle: Klucel (hydroxypropylcellulose) (HPC)): 91 % of control
T/C (dose: 1.56 mg/kg/injection, schedule: Q04DX003 (ip), vehicle: Klucel (hydroxypropylcellulose) (HPC)): 95 % of control
T/C (dose: 3.13 mg/kg/injection, schedule: Q01DX009 (ip), vehicle: Klucel (hydroxypropylcellulose) (HPC)): 94 % of control
T/C (dose: 3.13 mg/kg/injection, schedule: Q04DX003 (ip), vehicle: Klucel (hydroxypropylcellulose) (HPC)): 93 % of control
T/C (dose: 6.25 mg/kg/injection, schedule: Q01DX009 (ip), vehicle: Klucel (hydroxypropylcellulose) (HPC)): 94 % of control
T/C (dose: 6.25 mg/kg/injection, schedule: Q04DX003 (ip), vehicle: Klucel (hydroxypropylcellulose) (HPC)): 97 % of control

CCCC/C=C\C=C\CCCC
T/C [1]: 95 % of control
T/C [2]: 103 % of control
T/C [3]: 97 % of control

CC(=O)Nc1ccc(S(=O)(=O)C2=CC(=O)c3ccccc3C2=O)cc1
T/C [4]: 95 % of control

COC(=O)C(C)(C)O
T/C [5]: 102 % of control
T/C [1]: 104 % of control
T/C [6]: 102 % of control
T/C [2]: 100 % of control
T/C [7]: 97 % of control
T/C [3]: 104 % of control

O=C(Nc1ccccc1C(=O)NC1CCCC1)NC1CCCC1
T/C [8]: 89 % of control
T/C [9]: 94 % of control

O=C1C=CCC2c3nc4ccccc4cc3CN12 (configuration not stated)
T/C (dose: 37.5 mg/kg/injection, schedule: Q04DX003 (ip), vehicle: saline): 95 % of control
T/C (dose: 75.0 mg/kg/injection, schedule: Q04DX003 (ip), vehicle: saline): 93 % of control
T/C (dose: 150.0 mg/kg/injection, schedule: Q04DX003 (ip), vehicle: saline): 95 % of control

BrCC1=CC(c2ccccc2)(c2ccccc2)c2ccccc21
T/C [10]: 89 % of control
T/C [11]: 89 % of control
T/C [12]: 87 % of control

COc1ccc(/C=C(\CCCOC(C)=O)[N+](=O)[O-])cc1OC
T/C (dose: 100.0 mg/kg/injection, schedule: Q01DX001 (ip), vehicle: carboxymethylcellulose (CMC)): 104 % of control
T/C (dose: 200.0 mg/kg/injection, schedule: Q01DX001 (ip), vehicle: carboxymethylcellulose (CMC)): 101 % of control

COc1cc(NS(C)(=O)=O)ccc1Nc1c2ccc([N+](=O)[O-])cc2nc2c(C)cccc12
T/C (dose: 0.12 mg/kg/injection, schedule: Q01DX009 (ip), vehicle: saline): 122 % of control
T/C (dose: 0.37 mg/kg/injection, schedule: Q04DX003 (ip), vehicle: saline): 113 % of control
T/C (dose: 0.62 mg/kg/injection, schedule: Q01DX009 (ip), vehicle: saline): 112 % of control
T/C (dose: 0.75 mg/kg/injection, schedule: Q04DX003 (ip), vehicle: saline): 161 % of control
T/C (dose: 1.0 mg/kg/injection, schedule: Q01DX009 (ip), vehicle: saline): 166 % of control
T/C (dose: 1.25 mg/kg/injection, schedule: Q01DX009 (ip), vehicle: saline): 121 % of control
T/C (dose: 1.5 mg/kg/injection, schedule: Q04DX003 (ip), vehicle: saline): 187 % of control
T/C (dose: 2.5 mg/kg/injection, schedule: Q01DX009 (ip), vehicle: saline): 275 % of control
T/C (dose: 5.0 mg/kg/injection, schedule: Q01DX009 (ip), vehicle: saline): 111 % of control and 277 % of control
T/C (dose: 5.0 mg/kg/injection, schedule: Q01DX009 (sc), vehicle: saline): 165 % of control
T/C (dose: 7.5 mg/kg/injection, schedule: Q04DX003 (ip), vehicle: saline): 218 % of control
T/C (dose: 15.0 mg/kg/injection, schedule: Q01DX001 (ip), vehicle: other): 162 % of control
T/C (dose: 15.0 mg/kg/injection, schedule: Q01DX009 (ip), vehicle: saline): 103 % of control
T/C (dose: 15.0 mg/kg/injection, schedule: Q04DX003 (ip), vehicle: saline): 162 % of control
T/C (dose: 20.0 mg/kg/injection, schedule: Q01DX009 (ip), vehicle: saline): 86 % of control
T/C (dose: 33.0 mg/kg/injection, schedule: Q01DX001 (ip), vehicle: other): 180 % of control
T/C (dose: 50.0 mg/kg/injection, schedule: Q01DX001 (ip), vehicle: other): 177 % of control
T/C (dose: 75.0 mg/kg/injection, schedule: Q01DX001 (ip), vehicle: other): 159 % of control
T/C (dose: 75.0 mg/kg/injection, schedule: Q01DX001 (ip), vehicle: saline): 203 % of control
T/C (dose: 113.0 mg/kg/injection, schedule: Q01DX001 (ip), vehicle: other): 173 % of control
T/C (dose: 150.0 mg/kg/injection, schedule: Q01DX001 (ip), vehicle: saline): 98 % of control

CN(N=O)c1ccc(N(C)N=O)cc1
T/C (dose: 50.0 mg/kg/injection, schedule: Q01DX009 (ip), vehicle: Klucel (hydroxypropylcellulose) (HPC)): 100 % of control
T/C [13]: 97 % of control
T/C [8]: 96 % of control
T/C [14]: 102 % of control
T/C [9]: 93 % of control
T/C [15]: 92 % of control
T/C [16]: 96 % of control

CCN(C(=O)Nc1ccc(Cl)cc1)c1ccccc1
T/C [10]: 96 % of control
T/C [11]: 95 % of control
T/C [12]: 86 % of control

CC(C)C(=O)CC(=O)C(C)C.CC(C)C(=O)CC(=O)C(C)C.[Cu]
T/C (dose: 12.0 mg/kg/injection, schedule: Q01DX001 (ip), vehicle: saline): 93 % of control
T/C (dose: 12.0 mg/kg/injection, schedule: Q04DX003 (ip), vehicle: saline): 90 % of control
T/C (dose: 25.0 mg/kg/injection, schedule: Q01DX001 (ip), vehicle: saline): 98 % of control
T/C (dose: 25.0 mg/kg/injection, schedule: Q04DX003 (ip), vehicle: saline): 98 % of control
T/C (dose: 50.0 mg/kg/injection, schedule: Q01DX001 (ip), vehicle: saline): 98 % of control
T/C (dose: 50.0 mg/kg/injection, schedule: Q04DX003 (ip), vehicle: saline): 96 % of control

CCCCCC/C=C/C(=O)OCC
T/C [10]: 96 % of control
T/C [11]: 101 % of control
T/C [12]: 101 % of control

CCSc1ccc2c(cc1=O)[C@@H](NC1OC(CO)C(O)C(O)C1O)CCc1cc(OC)c(OC)c(OC)c1-2 (some centres not stated)
T/C (dose: 50.0 mg/kg/injection, schedule: Q01DX009 (ip), vehicle: other): 105 % of control
T/C (dose: 100.0 mg/kg/injection, schedule: Q01DX009 (ip), vehicle: other): 102 % of control
T/C (dose: 200.0 mg/kg/injection, schedule: Q01DX009 (ip), vehicle: other): 114 % of control
T/C (dose: 400.0 mg/kg/injection, schedule: Q01DX009 (ip), vehicle: other): 114 % of control

CCOC(Nc1ccc(Cl)c(Cl)c1)C(=O)c1ccccc1 (configuration not stated)
T/C [4]: 105 % of control
T/C [17]: 105 % of control
T/C [18]: 96 % of control

Cc1ccc(NC(=S)N(C)C)cc1Cl
T/C [13]: 97 % of control
T/C [8]: 104 % of control
T/C [14]: 101 % of control
T/C [9]: 97 % of control
T/C [15]: 100 % of control
T/C [16]: 104 % of control

CCNc1nc(C(F)(F)F)nc2[nH]ncc12
T/C (dose: 100.0 mg/kg/injection, schedule: Q01DX001 (ip), vehicle: acetone): 101 % of control
T/C [1]: 101 % of control
T/C (dose: 200.0 mg/kg/injection, schedule: Q01DX001 (ip), vehicle: acetone): 90 % of control
T/C [2]: 95 % of control
T/C (dose: 400.0 mg/kg/injection, schedule: Q01DX001 (ip), vehicle: acetone): 90 % of control
T/C [3]: 97 % of control

O=C(O)CC1(C(=O)O)CC2(Cl)C(Cl)=C(Cl)C1(Cl)C2(Cl)Cl (configuration not stated)
T/C [10]: 107 % of control
T/C [11]: 112 % of control

Cc1cnc(SC(C)(C)C)c(C)c1
T/C [4]: 109 % of control
T/C [5]: 100 % of control
T/C (dose: 100.0 mg/kg/injection, schedule: Q04DX002 (ip), vehicle: Klucel (hydroxypropylcellulose) (HPC)): 98 % of control and 100 % of control
T/C [10]: 108 % of control
T/C [17]: 107 % of control
T/C [6]: 94 % of control and 104 % of control
T/C (dose: 200.0 mg/kg/injection, schedule: Q04DX002 (ip), vehicle: Klucel (hydroxypropylcellulose) (HPC)): 100 % of control and 106 % of control
T/C [11]: 102 % of control
T/C [18]: 109 % of control
T/C [7]: 100 % of control and 107 % of control
T/C (dose: 400.0 mg/kg/injection, schedule: Q04DX002 (ip), vehicle: Klucel (hydroxypropylcellulose) (HPC)): 95 % of control and 97 % of control
T/C [12]: 91 % of control

c1ccc(-c2cc3ccccc3[nH]2)nc1
T/C [8]: 95 % of control
T/C [9]: 93 % of control
T/C [16]: 93 % of control
